Laboratory results: patent US10596162B2 (WYETH LLC, priority 2005, dated 2020)

Assays:
NCI-H1650 cells = experiment: Generation of drug-resistant NCI-H1650 colonies; format: cell-based; details: for generation of drug-resistant clones in vitro: NCI-H1650, irreversible inhibitors at concentrations above 10 μM, even after ethyl methane sulfonate mutagenesis
[1] = system: NCI-H1650 cells (delE746-A750 EGFR); experiment: Proliferation/cell killing of bronchoalveolar cancer cell line, crystal violet staining; details: NCI-H1650 vs NCI-H1666
ERBB2 = ERBB2 (Homo sapiens, UniProt P04626); details: read-out: IC50 for ERBB2; cited from earlier work
[2] = system: EGFR autophosphorylation (Y1068), AKT and MAPK phosphorylation in NCI-H1650 cells; experiment: Immunoblotting of EGFR signaling in parental cells; format: cell-based; details: delE746-A750 EGFR
Experimental: Viable cells were counted 72 h after treatment with double-stranded RNA and are shown as a fraction relative to cells treated with nonspecific siRNA, with standard deviations based on triplicate samples. […] Rhodamine-tagged EGF is used to label EGFR at 5 and 20 rain, after addition of ligand. […] (Zeiss microscope, ×63 magnification).
(§1) Immunoblotting and Signaling Studies. […] Lysates were prepared in 2× gel loading buffer, sonicated, boiled, and then separated by 10% SDS/PAGE, followed by electrotransfer to polyvinylidene fluoride (PVDF) membranes, and immunoblotting. Antibodies used were phospho-EGFR Y1068 and phospho-mitogen-activated protein kinase (MAPK) (Cell Signaling Technology, Beverly, Mass.), phospho-AKT (BioSource International, Camarillo, Calif.), and total EGFR, MAPK, AKT, and tubulin (Santa Cruz Biotechnology).

[3] = system: EGFR autophosphorylation, AKT and MAPK phosphorylation in NCI-H1975 cells (L858R and T790M EGFR); experiment: Immunoblotting of EGFR signaling in T790M cell line; format: cell-based
Experimental: Total EGFR, AKT, and MAPK are shown as loading controls.
as §1

Sequence of ERBB2 (P04626 23-1255): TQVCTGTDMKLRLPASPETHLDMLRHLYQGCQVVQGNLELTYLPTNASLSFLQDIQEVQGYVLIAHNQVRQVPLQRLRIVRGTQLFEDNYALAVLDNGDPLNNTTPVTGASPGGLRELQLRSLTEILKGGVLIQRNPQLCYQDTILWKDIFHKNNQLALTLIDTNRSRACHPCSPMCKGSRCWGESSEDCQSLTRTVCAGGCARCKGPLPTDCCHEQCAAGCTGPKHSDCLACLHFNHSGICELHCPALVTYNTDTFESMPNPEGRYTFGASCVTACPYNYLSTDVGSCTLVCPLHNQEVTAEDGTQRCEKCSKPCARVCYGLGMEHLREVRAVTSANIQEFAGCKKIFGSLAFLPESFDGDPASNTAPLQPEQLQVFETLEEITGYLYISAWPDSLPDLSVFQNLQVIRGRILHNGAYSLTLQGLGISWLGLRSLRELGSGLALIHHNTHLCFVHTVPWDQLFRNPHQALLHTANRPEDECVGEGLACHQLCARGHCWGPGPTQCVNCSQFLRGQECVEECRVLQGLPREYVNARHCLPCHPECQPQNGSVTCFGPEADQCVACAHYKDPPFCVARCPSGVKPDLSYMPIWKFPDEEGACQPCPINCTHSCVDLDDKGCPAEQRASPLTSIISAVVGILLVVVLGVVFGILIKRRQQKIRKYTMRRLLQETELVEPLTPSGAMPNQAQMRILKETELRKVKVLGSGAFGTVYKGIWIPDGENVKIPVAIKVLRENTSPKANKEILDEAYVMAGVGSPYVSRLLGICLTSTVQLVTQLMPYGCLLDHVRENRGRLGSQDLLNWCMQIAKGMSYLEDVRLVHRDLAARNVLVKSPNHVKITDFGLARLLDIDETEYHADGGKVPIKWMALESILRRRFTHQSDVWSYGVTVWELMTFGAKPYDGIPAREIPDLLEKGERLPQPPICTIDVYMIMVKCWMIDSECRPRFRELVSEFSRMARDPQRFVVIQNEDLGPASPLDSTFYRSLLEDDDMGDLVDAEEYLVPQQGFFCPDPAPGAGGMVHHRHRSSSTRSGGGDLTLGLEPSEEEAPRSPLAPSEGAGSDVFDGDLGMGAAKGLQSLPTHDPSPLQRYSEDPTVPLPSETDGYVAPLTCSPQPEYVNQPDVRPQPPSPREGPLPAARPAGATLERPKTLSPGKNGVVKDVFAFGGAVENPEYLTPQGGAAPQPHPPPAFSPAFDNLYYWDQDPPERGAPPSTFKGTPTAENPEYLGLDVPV

SMILES: CCOc1cc2ncc(C#N)c(Nc3ccc(F)c(Cl)c3)c2cc1NC(=O)/C=C/CN(C)C [EKB-569]
- generation of drug-resistant clones in vitro (NCI-H1650 cells): not readily generated
- killing of NSCLC cells harboring an EGFR mutation compared with cells expressing wild-type receptor [1]: increased cell killing
- IC50 (ERBB2): 1300 nM

SMILES: CCOc1cc2ncc(C#N)c(Nc3ccc(OCc4cccc(F)c4)c(Cl)c3)c2cc1NC(=O)/C=C/CN(C)C [HKI-357]
- generation of drug-resistant clones in vitro (NCI-H1650 cells): not readily generated
- effectiveness relative to gefitinib in suppressing EGFR autophosphorylation (Y1068), AKT and MAPK phosphorylation [2]: 10 fold
- suppression of ligand-induced EGFR autophosphorylation and downstream AKT and MAPK phosphorylation [3]: considerably more effective than gefitinib
- killing of NSCLC cells harboring an EGFR mutation compared with cells expressing wild-type receptor [1]: increased cell killing

SMILES: COc1cc2ncnc(Nc3ccc(F)c(Cl)c3)c2cc1OCCCN1CCOCC1 [gefitinib, Gefitinib, reference compound]
- frequency of drug-resistant colonies (NCI-H1650 cells; 20 μM gefitinib, irrespective of mutagen treatment): ≈ 10^−5
- generation of drug-resistant clones in vitro (NCI-H1650 cells): readily generated
